Test results: patent US8703424B2, “Predicting human developmental toxicity of pharmaceuticals using human stem-like cells and metabolomics” (Stemina Biomarker Discovery, Inc., priority 2010, dated 2014)
Like-named read-outs stand apart in the source and are kept apart here.

Columns and labels:
[1] = system: hESCs; assay: Arginine / ADMA fold change ratio (integrated EICs) in dosed hESCs vs controls; settings: for Arg fold change/ADMA fold change: EIC areas, controls vs. dosed
Description: All tested chemicals were purchased from Sigma-Aldrich (St. Louis, Mo.). Cells were dosed with drugs at a concentration equivalent to their published serum circulating therapeutic dosages. Dosing was performed on hESCs in 6-well plates in triplicate, i.e. three wells per plate. The plates were dosed in triplicate, so there were a total of nine dosed wells. In parallel, there were nine “control” wells, in which hESCs were cultured with mTeSR1 containing no drug, and three wells containing Matrigel with mTeSR1 medium without hESCs that served as medium controls. Lastly, three wells of dosed medium controls were prepared, containing Matrigel, mTeSR1 and drug, but no hESCs (FIG. 1). These medium controls provided baseline mass spectral data. On the first day of dosage, the determined concentration of drug was dissolved in mTeSR1, and then 2.5 mL of this solution was added to each dosed well of hESCs. Each day, for four days, the medium was removed and new dosed medium was added. On the fourth day, the medium was removed and added to acetonitrile to make a 40% acetonitrile solution, as outlined in the Sample Preparation section below.
Mass spectrometry was performed using an Agilent QTOF LC/MS system consisting of a G6520AA QTOF high resolution mass spectrometer capable of exact mass MS and MS/MS. In order to facilitate separation of small molecules with a wide range of polarity and to allow increased retention of hydrophilic species, Hydrophilic Interaction Liquid Chromatography (Alpert 1990) was employed. Each sample was run for 30 minutes with the gradient shown in Table 3 at a flow rate of 0.5 mL/min, using 0.1% formic acid in water (Solvent A) and 0.1% formic acid in acetonitrile (Solvent B). Electrospray ionization was employed using a dual ESI source, with an Agilent isocratic pump continuously delivering an internal mass reference solution into the source at approx. 0.01 mL/min. The mass range of the instrument was set to 100-1700 Da. A Phenomenex Luna HILIC column with dimensions 3×100 mm 3 μm particle size was used and maintained at 30° C. 5 μl of each sample was injected. Data acquisition was performed with Agilent MassHunter using high-resolution exact mass conditions.
Valproate is known to cause neural tube defects (DiLiberti et al. 1984) while nitric oxide synthase activity is essential for neural tube closure (Nachmany et al. 2006).

[2] = system: WA09 human embryonic stem (hES) cells; assay: PLS-DA prediction of teratogenicity from secretome of treated hES cells (Example 9); settings: DevTox pharmaceutical
Description: These included 11 known teratogens and 11 known non-teratogens. The current model is based on the mean fold change (treatment versus its associated intra-experimental control) of 15 metabolites common among the secretome of hES cells treated with pharmaceutical agents and unknown chemical compounds.

[3] = high dose (H = 10x circulating dose)
[4] = low dose (L = 0.1x circulating dose)

| Structure (SMILES) | Arg/ADMA Prediction [1] | Outcome of the Arg/ADMA metrics for teratogenicity [1] | Arg fold change/ADMA fold change [1] | % Non (PLS-DA class probability non-teratogen) [2, 3] | % Ter (PLS-DA class probability teratogen) [2, 3] | Confidence (difference between class probabilities) [2, 3] | Prediction [2, 3] | % Non (PLS-DA class probability non-teratogen) [2, 4] | % Ter (PLS-DA class probability teratogen) [2, 4] | Confidence (difference between class probabilities) [2, 4] | Prediction [2, 4] | Arg/ADMA Prediction ([1]; from fold change ratio) |
| --- | --- | --- | --- | --- | --- | --- | --- | --- | --- | --- | --- | --- |
| O=C1O[C@H]([C@@H](O)CO)C(O)=C1O [Ascorbic Acid] | Ter | false positives for teratogenicity | 1.28 | 0.57 | 0.43 | 0.14 | Non | 0.57 | 0.43 | 0.14 | Non | – |
| CC(=O)Oc1ccccc1C(=O)O [Aspirin] | – | – | 1.07 | – | – | – | – | – | – | – | – | – |
| Cn1c(=O)c2c(ncn2C)n(C)c1=O [Caffeine] | – | – | – | 0.53 | 0.47 | 0.06 | – | 0.58 | 0.42 | 0.16 | – | – |
| CN(C)CCOC(c1ccccc1)c1ccccc1 [Diphenhydramine] | – | – | – | 0.73 | 0.27 | 0.46 | Non | 0.76 | 0.24 | 0.52 | Non | – |
| Nc1nc2ncc(CNc3ccc(C(=O)N[C@@H](CCC(=O)O)C(=O)O)cc3)nc2c(=O)[nH]1 [Folic Acid] | – | – | 1.08 | 0.59 | 0.41 | 0.18 | Non | 0.59 | 0.41 | 0.18 | Non | – |
| NNC(=O)c1ccncc1 [Isoniazid] | – | – | 0.94 | 0.59 | 0.41 | 0.18 | Non | 0.76 | 0.24 | 0.52 | Non | – |
| N[C@@H](Cc1cc(I)c(Oc2cc(I)c(O)c(I)c2)c(I)c1)C(=O)O [Levothyroxine] | – | – | 1.03 | 0.59 | 0.41 | 0.18 | Non | 0.69 | 0.31 | 0.38 | Non | Non (Smaller fold change ratios (between 0.9 and 1.1) show a good correlation with non-teratogens) |
| CC1(C)S[C@@H]2[C@H](NC(=O)Cc3ccccc3)C(=O)N2[C@H]1C(=O)O [Penicillin G] | – | – | 0.96 | – | – | – | – | – | – | – | – | Non (Smaller fold change ratios (between 0.9 and 1.1) show a good correlation with non-teratogens) |
| CC1(C)S[C@@H]2[C@H](NC(=O)Cc3ccccc3)C(=O)N2[C@H]1C(=O)O [PenicillinG] | – | – | – | 0.57 | 0.43 | 0.14 | Non | 0.55 | 0.45 | 0.1 | Non | – |
| CC1=C(/C=C/C(C)=C/C=C/C(C)=C/C(=O)O)C(C)(C)CCC1 [Retinoic Acid] | Ter | – | 0.48 | – | – | – | – | – | – | – | – | – |
| CC1=C(/C=C/C(C)=C/C=C/C(C)=C/C(=O)O)C(C)(C)CCC1 [RetinoicAcid] | – | – | – | 0.3 | 0.7 | 0.4 | Ter | 0.3 | 0.7 | 0.4 | Ter | – |
| O=C1NS(=O)(=O)c2ccccc21 [Saccharin] | – | – | – | 0.8 | 0.2 | 0.6 | Non | 0.75 | 0.25 | 0.5 | Non | – |
| CCCC(CCC)C(=O)O [VPA] | – | – | – | 0.34 | 0.66 | 0.32 | Ter | 0.43 | 0.57 | 0.14 | Ter | – |
